These results are taken from patent US20040142979A1, “Heteroarylsulfonylmethyl hydroxamic acids and amides and their use as protease inhibitors” (priority 2002, published 2004).

Common to all, as to assay type: biochemical
Experiment [1] has as its target T1, Human recombinant MMP-2 (Homo sapiens, UniProt P08253).
T1 construct: made in house; host or cells: MMP-2-transfected p2AHT2 cells
T1 sequence (P08253 110-660): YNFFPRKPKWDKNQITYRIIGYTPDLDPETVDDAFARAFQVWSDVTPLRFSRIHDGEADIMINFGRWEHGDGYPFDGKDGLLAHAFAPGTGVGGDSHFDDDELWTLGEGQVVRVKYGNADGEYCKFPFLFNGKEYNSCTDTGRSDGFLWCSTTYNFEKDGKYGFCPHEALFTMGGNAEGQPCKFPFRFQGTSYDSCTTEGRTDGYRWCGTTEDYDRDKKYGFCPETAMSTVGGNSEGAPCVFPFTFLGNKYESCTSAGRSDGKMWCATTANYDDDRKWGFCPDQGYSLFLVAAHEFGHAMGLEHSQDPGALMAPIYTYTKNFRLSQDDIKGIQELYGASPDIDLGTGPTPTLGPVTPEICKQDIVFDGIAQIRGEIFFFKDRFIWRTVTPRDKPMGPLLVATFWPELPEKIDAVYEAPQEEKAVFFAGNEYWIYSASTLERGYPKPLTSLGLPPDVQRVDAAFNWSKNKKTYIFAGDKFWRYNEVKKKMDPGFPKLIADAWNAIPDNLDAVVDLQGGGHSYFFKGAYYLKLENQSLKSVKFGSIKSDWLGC
The experiment is described as follows: In vitro MMP inhibition analysis (fluorogenic peptide substrate), MMP-2. Conditions: human recombinant enzyme; 4 μM substrate (A); apparent Ki without substrate correction. The protocol: (§1) Several compounds and salts were analyzed in an in vitro assay to determine their ability to inhibit the MMP cleavage of peptide substrates. Inhibition constant (Ki) were calculated from the assayed compound-MMP interactions.
(§2) Human recombinant MMP-1, MMP-2, MMP-9, MMP-13, and MMP-14 were used in this assay. All enzymes were prepared in Assignee's laboratories following usual laboratory procedures. Protocols for the preparation and use of these enzymes are available in the scientific literature. See, e.g., Enzyme Nomenclature (Academic Press, San Diego, Calif., 1992) (and the citations therein). See also, Freije et al., J. Biol. Chem., 269(24), 16766-16773 (1994).
The MMP-2 proenzyme was purified by gelatin Sepharose chromatography from MMP-2- transfected p2AHT2 cells provided by Dr. Gregory Goldberg of Washington University (St. Louis, Mo.).
(§3) All MMPs were activated using 4-aminophenylmercuric acetate (“APMA”, Sigma Chemical, St. Louis, Mo.) or trypsin. MMP-9 also was activated using human recombinant MMP-3 (purified in Assignee's laboratory following standard cloning and purification techniques).
(§4) The following fluorogenic, methoxycoumarin-containing polypeptide substrate (A) was used in the MMP inhibition assays:
(§5) MCA-ArgProLeuGlyLeuDpaAlaArgGluArgNH2 (A)
(§6) “MCA” is 7-methoxycoumarin-4-yl acetyl. Substrate (A) was prepared Assignee's laboratory. In the absence of MMP inhibitory activity, the substrate is cleaved at the Gly-Leu peptide bond. This cleavage separates the highly fluorogenic peptide from the 2,4-dinitrophenyl quencher, thus resulting in increase of fluorescent intensity.
(§7) The stock solutions of the assayed compounds and salts were prepared in 1% dimethyl sulfoxide (DMSO). These stock solutions were diluted in Buffer A (100 mM Tris-HCl, 100 mM NaCl, 10 mM CaCl2, 0.05% polyoxyethylene 23 lauryl ether, pH 7.5) to obtain solutions with different compound concentrations, i.e., assay solutions with different concentrations of the assayed MMP inhibitory compound. The experiment controls contained the same amount of Buffer A/DMSO as the assayed sample, but contained none of the tested compound or salt.
(§8) The assays from which the Ki determinations were made were performed as follows. The assayed compound samples were incubated in separate wells of untreated white polystyrene plates (Nunc Nalgene International, Rochester, N.Y.), and analyzed on a Tecan SpectraFlour Plus plate reader. The excitation wavelength was 330 nm, and the emission wavelength -420 nm. All samples (assayed compounds and controls) were incubated in separate plate wells at room temperature for 1 hr in the presence of 4 μM of MMP substrate (A). In the absence of MMP inhibitory activity, substrate (A) was cleaved at the Gly-Leu bond resulting in an increase of relative fluorescence. Inhibition was observed as a reduced rate of this increase in relative fluorescence. […] This protocol is a modification of method by Knight et al., FEBS Lett., 296(3), 263-266 (1992). Apparent inhibitory constants were determined by non-linear regression of reaction velocity as a function of inhibitor and enzyme concentration using Morrison's equation, as described by Kuzmic, P., et al., Anal. Biochem., 286(1):45-50 (2000). Modifications were made in the non-linear regression method to allow a common control reaction rate and effective enzyme concentration to be shared between all dose-response relationships on a given assay plate. Since the substrate concentration was chosen to be at or below the Km, the apparent Ki's from this analysis were reported as Ki's without correction for the influence of substrate.
(§9) The above protocols were used to determine MMP inhibition Ki constants for the compounds in Examples 1, 2, and 4-42 above. All Ki values in Table 3 are given in nM units.

For experiment [2], the target named is T2, Human recombinant MMP-14 (Homo sapiens, UniProt P50281).
T2 construct: The catalytic domain enzyme was expressed in E. Coli inclusion bodies; made in house
As to the kind of experiment: In vitro MMP inhibition analysis (fluorogenic peptide substrate), MMP-14. The settings on record: human recombinant catalytic domain; 4 μM substrate (A); apparent Ki without substrate correction. Here is the method: as §1, §2
The MMP-14 full length cDNA was provided by Dr. Gregory Goldberg of Washington University (St. Louis, Mo.). The catalytic domain enzyme was expressed in E. Coli inclusion bodies, solubilized in urea, purified on a preparative […] reverse phase HPLC column, and then refolded in the presence of zinc acetate and purified for use.
as §3, §4, §5, §6, §7, §8, §9

In experiment [3] the target is T3, Human recombinant MMP-9 (Homo sapiens, UniProt P14780).
T3 construct: made in house; host or cells: MMP-9-transfected HT1080 cells (spent media)
T3 sequence (P14780 107-707 limits assumed): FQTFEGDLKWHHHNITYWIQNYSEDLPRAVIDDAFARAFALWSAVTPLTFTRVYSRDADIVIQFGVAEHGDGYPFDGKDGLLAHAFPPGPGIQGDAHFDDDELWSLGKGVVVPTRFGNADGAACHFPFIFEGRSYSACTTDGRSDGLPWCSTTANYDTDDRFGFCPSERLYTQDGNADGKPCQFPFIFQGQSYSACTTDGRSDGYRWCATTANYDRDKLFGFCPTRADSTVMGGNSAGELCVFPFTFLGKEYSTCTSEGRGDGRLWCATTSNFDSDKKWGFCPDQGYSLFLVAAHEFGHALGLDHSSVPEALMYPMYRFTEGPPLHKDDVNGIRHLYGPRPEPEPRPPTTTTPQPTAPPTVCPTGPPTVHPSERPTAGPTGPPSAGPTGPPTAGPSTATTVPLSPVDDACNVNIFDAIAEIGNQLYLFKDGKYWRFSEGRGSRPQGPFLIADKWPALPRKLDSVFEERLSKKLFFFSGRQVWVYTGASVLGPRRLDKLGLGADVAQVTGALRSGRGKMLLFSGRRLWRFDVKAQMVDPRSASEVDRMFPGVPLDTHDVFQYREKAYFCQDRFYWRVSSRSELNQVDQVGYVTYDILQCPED
The experiment is described as follows: In vitro MMP inhibition analysis (fluorogenic peptide substrate), MMP-9. Conditions: human recombinant enzyme; 4 μM substrate (A); apparent Ki without substrate correction. The protocol:
as §1, §2
The MMP-9 proenzyme was purified by gelatin Sepharose chromatography from spent media of MMP-9-transfected HT1080 cells provided by Dr. Howard Welgus of Washington University (St. Louis, Mo.).
as §3, §4, §5, §6, §7, §8, §9

Structures are written as SMILES.

For `CCCCOc1ccc(-c2ccc(S(=O)(=O)C3(C(=O)NO)CCOCC3)s2)cc1` [Example 43], the Ki in experiment [1] stood at 0.483 nM; in experiment [2], 466 nM; in experiment [3], 0.806 nM.

For the compound `O=C(NO)C1(S(=O)(=O)c2ccc(-c3ccc(OC(F)(F)C(F)F)cc3)s2)CCOCC1` [Example 44], the results for the Ki in experiment [1], in experiment [2] and in experiment [3] were 0.173 nM, 429 nM and 0.354 nM, respectively.

With `CCCCCc1ccc(-c2ccc(S(=O)(=O)C3(C(=O)NO)CCOCC3)cn2)cc1` [Example 45], the Ki in experiment [1] stood at 2.08 nM; in experiment [2], 3490 nM; in experiment [3], 8.96 nM.

In the case of `O=C(NO)C1(S(=O)(=O)c2ccc(-c3ccc(OCC(F)(F)F)cc3)nc2)CCOCC1` [Example 46], the Ki came to 0.367 nM in experiment [1], 852 nM in experiment [2] and 0.988 nM in experiment [3].

Regarding `O=C(NO)C1(S(=O)(=O)c2ccc(-c3ccc(OC(F)(F)C(F)F)cc3)nc2)CCOCC1` [Example 47], the results for the Ki in experiment [1], in experiment [2] and in experiment [3] were 0.274 nM, 2130 nM and 1.53 nM, respectively.

For `O=C(NO)C1(S(=O)(=O)c2ccc(-c3ccc(OC(F)(F)C(F)F)cc3)nc2)CCOCC1` [Example 48], the Ki in experiment [1] came out at 0.222 nM; in experiment [2], 1850 nM; in experiment [3], 1.06 nM.

On to `O=C(NO)C1(S(=O)(=O)c2ccc(-c3ccc(CCC(F)(F)C(F)(F)F)cn3)s2)CCOCC1` [Example 49], for which the Ki was determined as 3.14 nM in experiment [1], 9250 nM in experiment [2] and 10.2 nM in experiment [3].

As to `O=C(NO)C1(S(=O)(=O)c2ccc(-c3ccc(C(F)(F)F)cn3)s2)CCOCC1` [Example 50], the Ki stood at 29.4 nM in experiment [1], 2820 nM in experiment [2] and 133 nM in experiment [3].

For `O=C(NO)C1(S(=O)(=O)c2ccc3nc(-c4ccc(OC(F)(F)F)cc4)sc3c2)CCOCC1` [Example 51], the Ki in experiment [1] turned out to be 2.07 nM; in experiment [2] it was 3330 nM; in experiment [3], 0.636 nM.

Regarding `CCCCc1ccc(C(=O)C2CCN(c3nc4ccc(S(=O)(=O)C5(C(=O)NO)CCOCC5)cc4s3)CC2)s1` [Example 52], the Ki in experiment [1] is 76.3 nM; in experiment [2] it was over 10000 nM; in experiment [3], 837 nM.

Take `CCCc1ccc(-c2nc3ccc(S(=O)(=O)C4(C(=O)NO)CCOCC4)cc3s2)cc1` [Example 53]: the Ki in experiment [1] was 3.52 nM; in experiment [2], over 10000 nM; in experiment [3], 12.8 nM.

With `CC(C)Cc1ncc(-c2nc3ccc(S(=O)(=O)C4(C(=O)NO)CCOCC4)cc3s2)s1` [Example 54], the Ki in experiment [1] is 35.4 nM; in experiment [2], over 10000 nM; in experiment [3], 99 nM.

With `O=C(NO)C1(S(=O)(=O)c2ccc3nc(-c4cccc(C(F)(F)F)c4)sc3c2)CCOCC1` [Example 55], the results for the Ki in experiment [1], in experiment [2] and in experiment [3] were 621 nM, over 10000 nM and 3310 nM, respectively.

Turning to `O=C(NO)C1(S(=O)(=O)c2ccc3nc(N4CCC(Oc5ccc(OC(F)(F)F)cc5)CC4)sc3c2)CCOCC1` [Example 56], the Ki in experiment [1] turned out to be 40.3 nM; in experiment [2] it was 798 nM; in experiment [3] it was 68.5 nM.

As for `O=C(NO)C1(S(=O)(=O)c2ccc3nc(-c4ccc(C(F)(F)F)cc4)sc3c2)CCOCC1` [Example 57], the results for the Ki in experiment [1], in experiment [2] and in experiment [3] were 1.86 nM, 2160 nM and 0.964 nM, respectively.

As to `CCc1ccc(-c2nc3ccc(S(=O)(=O)C4(C(=O)NO)CCOCC4)cc3s2)cc1` [Example 58], the Ki in experiment [1] amounted to 1.51 nM; in experiment [2], 2500 nM; in experiment [3], 1.06 nM.

For `O=C(NO)C1(S(=O)(=O)c2ccc3nc(-c4ccc(Cl)s4)sc3c2)CCOCC1` [Example 59], the Ki in experiment [1] amounted to 2.01 nM; in experiment [2], 927 nM; in experiment [3], 5.09 nM.

Regarding `O=C(NO)C1(S(=O)(=O)c2ccc3nc(-c4ccc(F)c(F)c4)sc3c2)CCOCC1` [Example 60], the results for the Ki in experiment [1], in experiment [2] and in experiment [3] were 10.3 nM, 707 nM and 14.1 nM, respectively.

`O=C(NO)C1(S(=O)(=O)c2ccc3nc(-c4ccc(F)cc4F)sc3c2)CCOCC1` [Example 61]: the results for the Ki in experiment [1], in experiment [2] and in experiment [3] were 14.8 nM, over 10000 nM and 21.5 nM, respectively.

For `O=C(NO)C1(S(=O)(=O)c2ccc3nc(-c4ccsc4)sc3c2)CCOCC1` [Example 62], the Ki in experiment [1] came out at 4.83 nM; in experiment [2], 355 nM; in experiment [3] it was 40.5 nM.

Turning to `COCCN1CCC(C(=O)NO)(S(=O)(=O)c2ccc3nc(-c4ccc(OC(F)(F)F)cc4)sc3c2)CC1` [Example 63], the Ki was 2.25 nM in experiment [1], 4230 nM in experiment [2] and 0.624 nM in experiment [3].

Consider `O=C(NO)C1(S(=O)(=O)c2ccc3nc(-n4cnc(-c5ccccc5)c4)sc3c2)CCOCC1` [Example 64], for which the Ki in experiment [1] amounted to 151 nM; in experiment [2], 3830 nM; in experiment [3], 799 nM.

In the case of `O=C(NO)C1(S(=O)(=O)c2ccc3nc(-c4ccc5c(c4)OCO5)sc3c2)CCOCC1` [Example 65], the Ki was 4.43 nM in experiment [1], 686 nM in experiment [2] and 7.2 nM in experiment [3].

As for `CCOc1ccc(-c2nc3ccc(S(=O)(=O)C4(C(=O)NO)CCOCC4)cc3s2)cc1` [Example 66], the Ki in experiment [1] was 2.21 nM; in experiment [2], over 312 nM; in experiment [3], 3.37 nM.

As for `O=C(NO)C1(S(=O)(=O)c2ccc3nc(-c4ccc(SC(F)(F)F)cc4)sc3c2)CCOCC1` [Example 67], the Ki in experiment [1] was determined as 2.76 nM; in experiment [2] it was 3600 nM; in experiment [3] it was 0.471 nM.

On to `O=C(NO)C1(S(=O)(=O)c2ccc(-c3ccc(CCC(F)(F)F)cc3)nc2)CCOCC1` [Example 68], for which the Ki in experiment [1] worked out at 0.665 nM; in experiment [2], 2450 nM; in experiment [3] it was 2.82 nM.

As to `O=C(NO)C1(S(=O)(=O)c2ccc(-c3ccc(CCC(F)(F)C(F)(F)F)cc3)nc2)CCOCC1` [Example 69], the results for the Ki in experiment [1], in experiment [2] and in experiment [3] were 0.766 nM, 5070 nM and 8.93 nM, respectively.

Consider `CCCCc1ccc(C(=O)C2CCN(c3ccc(S(=O)(=O)C4(C(=O)NO)CCOCC4)cn3)CC2)s1` [Example 70], for which the Ki in experiment [1] was 1840 nM; in experiment [2] it was over 10000 nM; in experiment [3] it was over 10000 nM.
